Several values for one entry are separate records, joined by “and”; a condition that tells them apart may be missing. Identical values can stand only once. Like-named read-outs stand apart in the source and are kept apart here.
How the values were obtained:
[1] = target: T1, α-glucosidase (Saccharomyces cerevisiae, UniProt P53341); assay type: biochemical
Text: In the experiment, the concentration of the fixed substrate Gal-G2-α-CNP/pNPG solution was 5 mmol/L, and the concentrations of the two enzymes (100, 200, 300, 400 U/L) were used to determine the effect of different concentrations of porphyrins on enzyme activity. The concentration of the enzyme was 200 U/L, and the concentration of the substrate Gal-G2-α-CNP/pNPG solution (2.5, 5, 7.5, 10 mmol/L) was used to determine the effect of different concentrations of porphyrins on the enzyme-catalyzed substrate activity.
Upon identifying the type of inhibition, the kinetic equations vary for different inhibition types.
In the formula, v, Vmax, Km, Ki, and Kis represent the reaction rate, maximum reaction rate, Michaelis constant, and free enzyme inhibition constant, respectively, and the binding enzyme inhibition constant. [S] denotes the substrate concentration. [I] denotes the inhibitor concentration.

[2] = target: T2, α-amylase (Sus scrofa, UniProt P00690); test: Fluorescence quenching, binding and thermodynamics with α-amylase
T2 sequence (P00690 16-511): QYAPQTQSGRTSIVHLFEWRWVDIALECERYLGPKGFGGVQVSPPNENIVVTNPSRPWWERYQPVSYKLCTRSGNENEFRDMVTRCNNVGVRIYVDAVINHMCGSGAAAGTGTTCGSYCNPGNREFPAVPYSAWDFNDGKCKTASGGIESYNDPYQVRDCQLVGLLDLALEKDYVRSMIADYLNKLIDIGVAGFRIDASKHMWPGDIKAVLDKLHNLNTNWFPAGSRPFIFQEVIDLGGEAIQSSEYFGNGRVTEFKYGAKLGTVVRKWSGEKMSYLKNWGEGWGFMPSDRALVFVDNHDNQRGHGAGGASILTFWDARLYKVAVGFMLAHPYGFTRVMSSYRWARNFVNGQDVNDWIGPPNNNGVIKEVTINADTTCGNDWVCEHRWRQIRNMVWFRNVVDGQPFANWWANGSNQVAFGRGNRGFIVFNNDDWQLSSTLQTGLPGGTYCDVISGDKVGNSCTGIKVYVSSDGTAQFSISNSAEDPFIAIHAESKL
Text: In the α-amylase experiment, a series of porphyrins and amylase (200 U/L) were mixed in a volume ratio of 1:1.
(§1) The Stern–Volmer equation [35] was adopted to determine the quenching mechanisms between six porphyrin compounds and both enzymes in the experimental group, with Formula (6):(6) F0/F=1+Ksv[Q]=1+Kqτ0[Q]
(§2) The Stern–Volmer equation was adapted based on experimental data to more accurately characterize the quenching behavior [36], with Formula (7):(7) F0/F=e^Ksv[Q]=e^Kqτ0[Q]
(§3) In the formula, the fluorescence quenching ratio was calculated as F0/F, where F0 corresponds to the emission intensity of pure α-amylase solution (control) and F denotes the intensity measured after the incremental addition of porphyrin ligands. KSV and Kq denote the Stern–Volmer quenching constant and the bimolecular quenching rate constant, respectively, τ0 (10^−8 s) is the average fluorescence lifetime of the fluorophore in the absence of quencher, and [Q] indicates the concentration of porphyrin compounds.
(§4) Due to the presence of an internal filtration effect, a decrease in the fluorescence intensity of the system may occur. Therefore, all fluorescence data were corrected using Formula (8) to eliminate the internal filtration effect.(8) Fcor=Fobse^(Aex+Aem)/2
(§5) The evaluation of the interaction forces between porphyrin compounds and the two enzymes can be achieved by calculating thermodynamic parameters. When both ΔH^0 and ΔS^0 are positive, the predominant interaction force is hydrophobic. When both ΔH^0 and ΔS^0 are negative, the main forces are hydrogen bonding and van der Waals forces. When ΔH^0 < 0 and ΔS^0 > 0, the primary interaction is electrostatic attraction.
(§6) The thermodynamic parameters were calculated using Formulas (9) and (10), and then the Van’t Hoff plot for the interactions between the porphyrin compounds and the two enzymes was generated by plotting lnKa on the Y-axis versus 1/T on the X-axis.(9) lnKa=−ΔH^0/RT+ΔS^0/R (10) ΔG^0=ΔH^0−TΔS^0=−RTlnKa

[3] = target: T1, α-glucosidase; test: Fluorescence quenching, binding and thermodynamics with α-glucosidase
Protocol: In the α-amylase experiment, a series of porphyrins and amylase (200 U/L) were mixed in a volume ratio of 1:1. In the α-glucosidase experiment, the glucosidase concentration was 400 U/L, mixed in a volume ratio of 1:1; the samples were maintained at three different temperatures (298, 304, and 310 K) for 30 min, with excitation at 280 nm and emission scanning from 300 to 500 nm.
as §1, §2, §3, §4, §5, §6

[4] = target: T2, α-amylase; test: FTIR secondary structure analysis of α-AMY complexes; settings: enzyme–porphyrin molar ratio 1:2, amide I band
Text: (§7) A molar ratio of 1:2 (α-amylase/α-glucosidase)–porphyrin solution was placed in a cryocentrifugal concentrator and the dried solid sample was mixed with dry KBr and measured using a Nicolet IS-50 FTIR Spectrometer (ThermoFisher, Waltham, MA, USA) with a scanning range of 4000–400 cm^−1 and a resolution of 4 cm^−1. The overlapping peaks in the amide I band (1700–1600 cm^−1) were further analyzed into multiple feature sub-peaks, and quantitative analysis of the relative content of various secondary structures in proteins using curve fitting methods was performed.

[5] = target: T1, α-glucosidase; test: FTIR secondary structure analysis of α-GLU complexes; settings: enzyme–porphyrin molar ratio 1:2, amide I band
Text: as §7

T1 sequence (P53341 whole entry): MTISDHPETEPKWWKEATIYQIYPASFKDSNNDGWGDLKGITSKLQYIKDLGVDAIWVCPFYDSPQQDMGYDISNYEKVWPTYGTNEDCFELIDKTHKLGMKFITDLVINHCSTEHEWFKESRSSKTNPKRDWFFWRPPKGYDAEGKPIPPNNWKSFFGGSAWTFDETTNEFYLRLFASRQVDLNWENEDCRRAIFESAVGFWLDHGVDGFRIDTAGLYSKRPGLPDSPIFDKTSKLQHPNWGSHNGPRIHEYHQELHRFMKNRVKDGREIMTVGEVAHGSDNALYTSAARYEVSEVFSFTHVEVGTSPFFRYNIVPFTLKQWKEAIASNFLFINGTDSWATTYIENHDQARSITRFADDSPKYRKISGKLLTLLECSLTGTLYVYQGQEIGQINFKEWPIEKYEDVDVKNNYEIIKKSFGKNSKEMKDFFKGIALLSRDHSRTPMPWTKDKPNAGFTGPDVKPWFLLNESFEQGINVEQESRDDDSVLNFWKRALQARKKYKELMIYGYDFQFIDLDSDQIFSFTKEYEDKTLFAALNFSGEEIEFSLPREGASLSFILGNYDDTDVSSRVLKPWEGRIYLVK

## O=C(O)c1ccc(-c2c3nc(c(-c4ccc(C(=O)O)cc4)c4ccc([nH]4)c(-c4ccc(C(=O)O)cc4)c4nc(c(-c5ccc(C(=O)O)cc5)c5ccc2[nH]5)C=C4)C=C3)cc1.[Ni+2] [Ni–TCPP, nickel (II) meso-tetra (4-carboxyphenyl) porphine]
[1]
  Km: 3.0491 ± 0.0776 µg/mL and 3.3243 ± 0.0748 µg/mL and 3.5279 ± 0.0812 µg/mL and 3.8090 ± 0.1419 µg/mL and 4.1248 ± 0.0704 µg/mL
[1]; C 5 μg/mL
  Vmax: 0.1036 ± 0.0026 ΔOD/min
[1]; C 7.5 μg/mL
  Vmax: 0.0909 ± 0.0020 ΔOD/min
[1]; C 10 μg/mL
  Vmax: 0.0791 ± 0.0018 ΔOD/min
[1]; C 15 μg/mL
  Vmax: 0.0628 ± 0.0023 ΔOD/min
[1]; C 25 μg/mL
  Vmax: 0.0444 ± 0.0008 ΔOD/min
[1]; Lineweaver–Burk plots
  type of inhibition of α-glucosidase: mixed type
[1]; enzyme 100–400 U/L, substrate 5 mmol/L
  reversibility of inhibition of α-glucosidase: reversible inhibition
[1]; enzyme–substrate complex inhibition constant
  Kis: 9.2257 ± 0.0312 µg/mL
[1]; free enzyme inhibition constant
  Ki: 3.8703 ± 0.0201 µg/mL
[2]; Stern–Volmer plots, 298–310 K
  quenching mechanism of α-amylase fluorescence: pure static quenching
[2]; T 298 K
  Ka (binding constant): 99.31 ± 0.12 ×10^5 L/mol
  Kq: 9.78 ± 0.03 ×10^12 L/mol/s
  Ksv: 9.78 ± 0.03 ×10^4 L/mol
  n (number of binding sites): 1.44
  ΔG^0: -9.541 ± 0.019 kcal/mol
[2]; T 304 K
  Ka (binding constant): 5.75 ± 0.04 ×10^5 L/mol
  Kq: 8.47 ± 0.07 ×10^12 L/mol/s
  Ksv: 8.47 ± 0.07 ×10^4 L/mol
  n (number of binding sites): 1.19
  ΔG^0: -8.011 ± 0.014 kcal/mol
[2]; T 310 K
  Ka (binding constant): 0.61 ± 0.02 ×10^5 L/mol
  Kq: 7.11 ± 0.05 ×10^12 L/mol/s
  Ksv: 7.11 ± 0.05 ×10^4 L/mol
  n (number of binding sites): 0.99
  ΔG^0: -6.785 ± 0.017 kcal/mol
[2]; Van’t Hoff, 298–310 K
  ΔH^0: -78.002 ± 0.043 kcal/mol
  ΔS^0: −961.90 ± 0.08 J/mol/k
[3]; 310 K
  binding constants K: (1.83 ± 0.01) × 10^5 L·mol^−1
[3]; Stern–Volmer plots, 298–310 K
  quenching mechanism of α-glucosidase fluorescence: static quenching
[3]; T 298 K
  Ka (binding constant): 2.34 ± 0.04 ×10^5 L/mol
  Kq: 17.73 ± 0.15 ×10^12 L/mol/s
  Ksv: 17.73 ± 0.15 ×10^4 L/mol
  n (number of binding sites): 1.03
  ΔG^0: -7.321 ± 0.0311 kcal/mol
[3]; T 304 K
  Ka (binding constant): 2.09 ± 0.02 ×10^5 L/mol
  Kq: 14.23 ± 0.09 ×10^12 L/mol/s
  Ksv: 14.23 ± 0.09 ×10^4 L/mol
  n (number of binding sites): 1.04
  ΔG^0: -7.4 ± 0.014 kcal/mol
[3]; T 310 K
  Ka (binding constant): 1.83 ± 0.01 ×10^5 L/mol
  Kq: 12.31 ± 0.08 ×10^12 L/mol/s
  Ksv: 12.31 ± 0.08 ×10^4 L/mol
  n (number of binding sites): 1.03
  ΔG^0: -7.464 ± 0.017 kcal/mol
[3]; Van’t Hoff, 298–310 K
  ΔH^0: -3.786 ± 0.012 kcal/mol
  ΔS^0: 49.67 ± 0.08 J/mol/k
[4]
  Random Coil: 21.40 ± 0.05%
  α-Helix: 20.76 ± 0.06%
  β-Antiparallel: 10.30 ± 0.03%
  β-Sheet: 11.20 ± 0.02%
  β-Turn: 36.33 ± 0.13%
[5]
  Random Coil: 26.76 ± 0.07%
  α-Helix: 19.75 ± 0.07%
  β-Antiparallel: 1.88 ± 0.01%
  β-Sheet: 13.68 ± 0.04%
  β-Turn: 37.94 ± 0.10%
